Experimental findings from US20220340597A1, “HEXAHYDRO-1H-PYRAZINO[1,2-A]PYRAZINE COMPOUNDS FOR THE TREATMENT OF AUTOIMMUNE DISEASE” (Hoffmann-La Roche Inc., priority 2019, published 2022) are described below.

One assay concerns the target T1, human TLR7 (Homo sapiens, UniProt Q9NYK1).
T1 construct: host or cells: HEK293 (HEK-Blue hTLR7)
T1 sequence (Q9NYK1 27-1049): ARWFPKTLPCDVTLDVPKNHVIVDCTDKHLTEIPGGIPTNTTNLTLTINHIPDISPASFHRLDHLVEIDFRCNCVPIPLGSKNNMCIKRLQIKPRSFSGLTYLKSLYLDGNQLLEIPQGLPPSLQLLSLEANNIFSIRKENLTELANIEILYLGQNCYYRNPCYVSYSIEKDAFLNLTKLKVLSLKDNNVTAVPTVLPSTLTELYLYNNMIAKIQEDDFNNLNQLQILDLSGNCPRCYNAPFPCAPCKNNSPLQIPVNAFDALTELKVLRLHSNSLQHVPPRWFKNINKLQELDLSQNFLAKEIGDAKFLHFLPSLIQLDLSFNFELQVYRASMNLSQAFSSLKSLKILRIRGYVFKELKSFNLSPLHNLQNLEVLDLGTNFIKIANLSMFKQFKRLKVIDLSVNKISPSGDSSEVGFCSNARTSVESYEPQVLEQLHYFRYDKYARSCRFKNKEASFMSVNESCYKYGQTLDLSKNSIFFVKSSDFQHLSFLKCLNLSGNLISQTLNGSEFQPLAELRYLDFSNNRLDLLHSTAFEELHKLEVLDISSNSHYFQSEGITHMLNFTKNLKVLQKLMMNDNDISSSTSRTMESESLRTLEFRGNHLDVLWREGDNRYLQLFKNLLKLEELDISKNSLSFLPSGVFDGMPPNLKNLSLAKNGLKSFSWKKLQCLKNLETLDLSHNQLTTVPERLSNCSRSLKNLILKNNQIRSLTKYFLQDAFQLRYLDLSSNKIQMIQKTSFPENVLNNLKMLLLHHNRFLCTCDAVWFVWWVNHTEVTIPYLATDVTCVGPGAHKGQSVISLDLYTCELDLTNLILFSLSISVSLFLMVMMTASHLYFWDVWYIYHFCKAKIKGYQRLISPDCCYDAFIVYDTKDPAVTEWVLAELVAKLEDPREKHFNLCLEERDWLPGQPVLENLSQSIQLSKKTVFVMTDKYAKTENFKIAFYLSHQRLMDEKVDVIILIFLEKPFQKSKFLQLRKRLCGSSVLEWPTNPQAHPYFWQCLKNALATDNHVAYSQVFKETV
The assay is described as follows: HEK293-Blue-hTLR-7 cells assay. The assay is classed as cell-based. The conditions noted are these: HEK293-Blue-hTLR7 cells, R848 stimulation, 20 hrs, SEAP reporter; read-out: HEK/hTLR7 IC50.

A further assay deals with T2, human TLR8 (Homo sapiens, UniProt Q9NR97).
T2 sequence (Q9NR97 27-1041): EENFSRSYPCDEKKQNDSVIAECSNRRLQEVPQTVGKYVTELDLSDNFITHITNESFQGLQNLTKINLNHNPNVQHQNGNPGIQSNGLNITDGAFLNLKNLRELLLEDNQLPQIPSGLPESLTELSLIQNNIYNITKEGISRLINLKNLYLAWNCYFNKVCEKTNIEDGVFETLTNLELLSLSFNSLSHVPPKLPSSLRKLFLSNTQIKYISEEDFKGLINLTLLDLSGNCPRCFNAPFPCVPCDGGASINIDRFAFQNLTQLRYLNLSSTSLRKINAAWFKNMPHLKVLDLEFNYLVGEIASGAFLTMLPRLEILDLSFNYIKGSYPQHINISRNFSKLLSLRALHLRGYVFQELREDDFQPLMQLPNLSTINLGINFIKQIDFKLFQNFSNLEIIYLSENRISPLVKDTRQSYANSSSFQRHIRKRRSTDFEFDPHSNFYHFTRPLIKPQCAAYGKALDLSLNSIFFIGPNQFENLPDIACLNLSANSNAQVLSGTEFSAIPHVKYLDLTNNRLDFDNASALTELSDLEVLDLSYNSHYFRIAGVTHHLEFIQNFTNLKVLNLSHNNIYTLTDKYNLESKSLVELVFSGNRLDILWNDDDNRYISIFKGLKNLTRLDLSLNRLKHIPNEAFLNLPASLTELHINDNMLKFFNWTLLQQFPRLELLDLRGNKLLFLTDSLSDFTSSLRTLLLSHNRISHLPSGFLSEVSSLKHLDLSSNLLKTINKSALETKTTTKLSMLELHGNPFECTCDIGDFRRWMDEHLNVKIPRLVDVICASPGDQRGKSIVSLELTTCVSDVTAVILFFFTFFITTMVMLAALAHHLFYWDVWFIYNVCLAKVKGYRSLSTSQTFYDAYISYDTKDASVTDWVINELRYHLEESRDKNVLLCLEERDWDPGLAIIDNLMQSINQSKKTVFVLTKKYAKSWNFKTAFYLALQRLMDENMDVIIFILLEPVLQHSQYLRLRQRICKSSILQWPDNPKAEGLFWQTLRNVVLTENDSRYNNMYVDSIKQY
The experiment in a line: HEK293-Blue-hTLR-8 cells assay.

pIC50: −log10 of the molar value.

In the case of `C[C@@H]1CN(c2ccc(C#N)c3ncccc23)C[C@@H]2CN(CCc3ccc(N4CCNCC4)cc3)CCN21` [Example 7, 5-[(4R,9aS)-4-methyl-8-[2-(4-piperazin-1-ylphenyl)ethyl]-3,4,6,7,9,9a-hexahydro-1H-pyrazino[1,2-a]pyrazin-2-yl]quinoline-8-carbonitrile], the pIC50 is 8.30 on human TLR7 and 7.52 at human TLR8.
In the case of `Cc1cc(N2CCN3[C@@H](C2)CN(c2ccc(C#N)c4ncccc24)C[C@H]3C)nc(N2CCNCC2)n1` [Example 31, 5-[(4R,9aR)-4-methyl-8-(6-methyl-2-piperazin-1-yl-pyrimidin-4-yl)-3,4,6,7,9,9a-hexahydro-1H-pyrazino[1,2-a]pyrazin-2-yl]quinoline-8-carbonitrile], the pIC50 was 7.66 on human TLR7 and 7.62 against human TLR8.
The corresponding values for `C[C@@H]1CN(c2ccc(C#N)c3ncccc23)C[C@@H]2CN(CCc3ccc(N4C[C@H]5NCCO[C@@H]5C4)nc3)CCN21` [Example 124, 5-[(4R,9aS)-8-[2-[6-[(4aR,7aR)-3,4,4a,5,7,7a-hexahydro-2H-pyrrolo[3,4-b][1,4]oxazin-6-yl]-3-pyridyl]ethyl]-4-methyl-3,4,6,7,9,9a-hexahydro-1H-pyrazino[1,2-a]pyrazin-2-yl]quinoline-8-carbonitrile] are 7.85 and 7.29.
For the compound `CO[C@@H]1CN(c2ccnc(N3CCN4[C@@H](C3)CN(c3ccc(C#N)c5ncccc35)C[C@H]4C)n2)C[C@H]1N` [Example 37, 5-[(4R,9aR)-8-[4-[(3R,4R)-3-amino-4-methoxy-pyrrolidin-1-yl]pyrimidin-2-yl]-4-methyl-3,4,6,7,9,9a-hexahydro-1H-pyrazino[1,2-a]pyrazin-2-yl]quinoline-8-carbonitrile], the figures for the pIC50 on human TLR7 and on human TLR8 were 7.68 and 7.59, respectively.
The corresponding values for `CO[C@@H]1CN(c2ccc(CCN3CCN4[C@@H](C3)CN(c3ccc(C#N)c5ncccc35)C[C@H]4C)nc2)C[C@H]1N` [Example 13, 5-[(4R,9aS)-8-[2-[5-[(3R,4R)-3-amino-4-methoxy-pyrrolidin-1-yl]-2-pyridyl]ethyl]-4-methyl-3,4,6,7,9,9a-hexahydro-1H-pyrazino[1,2-a]pyrazin-2-yl]quinoline-8-carbonitrile] are 7.59 and 8.05.
For `C[C@@H]1CN(c2ccc(C#N)n3ncc(F)c23)C[C@@H]2CN(Cc3ccc4c(c3)CNCC4)CCN21` [Example 69, 4-[(4R,9aS)-4-methyl-8-(1,2,3,4-tetrahydroisoquinolin-7-ylmethyl)-3,4,6,7,9,9a-hexahydro-1H-pyrazino[1,2-a]pyrazin-2-yl]-3-fluoro-pyrazolo[1,5-a]pyridine-7-carbonitrile], the pIC50 was 7.18 on human TLR7 and 7.28 against human TLR8.
For the compound `C[C@@H]1CN(c2ccc(C#N)n3ncc(F)c23)C[C@@H]2CN(CCc3ccc(N4CC(C)(N)C4)nc3)CCN21` [Example 74, 4-[(4R,9aS)-8-[2-[6-(3-amino-3-methyl-azetidin-1-yl)-3-pyridyl]ethyl]-4-methyl-3,4,6,7,9,9a-hexahydro-1H-pyrazino[1,2-a]pyrazin-2-yl]-3-fluoro-pyrazolo[1,5-a]pyridine-7-carbonitrile], the results for the pIC50 on human TLR7 and at human TLR8 were 7.55 and 7.21, respectively.
In the same order, the values of `[2H]c1ccc2c(N3C[C@@H]4CN(c5ncc(C(=O)N6CC7(CN(C)C7)C6)cc5C)CCN4[C@@H](C)C3)ccc(C#N)c2n1` [Example 103, 5-[(4S,9aR)-4-methyl-8-[3-methyl-5-(6-methyl-2,6-diazaspiro[3.3]heptane-2-carbonyl)-2-pyridyl]-3,4,6,7,9,9a-hexahydro-1H-pyrazino[1,2-a]pyrazin-2-yl]-2-deuterio-quinoline-8-carbonitrile] are 8.22 and 8.40.
For the compound `C[C@@H]1CN(c2ccc(C#N)c3ncccc23)C[C@@H]2CN(Cc3cccc4c3CNC4)CCN21` [Example 72, 5-[(4R,9aS)-8-(isoindolin-4-ylmethyl)-4-methyl-3,4,6,7,9,9a-hexahydro-1H-pyrazino[1,2-a]pyrazin-2-yl]quinoline-8-carbonitrile], the pIC50 at human TLR7 was 7.92; against human TLR8, 7.82.
The corresponding values for `C[C@@H]1CN(c2ccc(C#N)c3ncccc23)C[C@@H]2CN(CCc3ccc(N4CCN[C@@H](C)C4)cn3)CCN21` [Example 20, 5-[(4R,9aS)-4-methyl-8-[2-[5-[(3S)-3-methylpiperazin-1-yl]-2-pyridyl]ethyl]-3,4,6,7,9,9a-hexahydro-1H-pyrazino[1,2-a]pyrazin-2-yl]quinoline-8-carbonitrile] are 7.85 and 7.29.
The corresponding values for `[2H]c1ccc2c(N3C[C@@H]4CN(c5ccc(CCN6C[C@@H](N)[C@@H](F)C6)nc5)CCN4[C@@H](C)C3)ccc(C#N)c2n1` [Example 117, 5-[(4S,9aR)-8-[6-[2-[(3R,4S)-3-amino-4-fluoro-pyrrolidin-1-yl]ethyl]-3-pyridyl]-4-methyl-3,4,6,7,9,9a-hexahydro-1H-pyrazino[1,2-a]pyrazin-2-yl]-2-deuterio-quinoline-8-carbonitrile] are 7.64 and 7.62.
